Among the data in ChEMBL document CHEMBL1124651, “Cytostatic trans-platinum(II) complexes” (J Med Chem, 1989) are T/C, LD0 and ID50 values, retold here.

In one experiment the test system is P388. The experiment can be described thus: Anti tumor activity expressed as median survival time of treated BDF1 mice bearing P388 leukemia cells versus untreated controls. The settings on record: Mus musculus. It is filed as functional, cell-based.
Another experiment has as its system Mus musculus. The experiment can be described thus: Maximum dose at which all tested BDF1 mice survived after 30 days of intraperitoneal dosage. It is filed as functional.
A further experiment has as its system L1210. In words: Compound was evaluated for its inhibitory dose against L1210 leukemia cell line. It is filed as functional, cell-based. Conditions: Mus musculus.

Several values for one entry are separate records, joined by “and”; a condition that tells them apart may be missing. Equal values may be shown once.

What is called T/C is the ratio of treated to control. In the case of Cis-[PtCl2(gamma-pic)2] complex, the T/C in the experiment with P388 was 105% and 119%.
In the experiment with Mus musculus, CISPLATIN came in with an LD0 of 30 µM/kg. The T/C in the experiment on P388 was 205%. Moreover, in the experiment with L1210, the ID50 came to 2.3 µM.
In the case of TRANSPLATIN, the LD0 with Mus musculus is 167 µM/kg. The same substance came in with a T/C with P388 of 116%. This substance yielded an ID50 in the experiment with L1210 of 67 µM.
